Literature values in patent publication US9374996B2, “Agroformulation comprising copolymer of acrylic acid, poly(alkylene glycol) (meth)acrylate, and alkyl (meth)acrylate” (priority 2012, dated 2016).
In brackets after ≈: the same amount, converted by molar mass.

Settings: at 20° C.

For `Cn1cc(C(=O)Nc2ccccc2-c2cc(F)c(F)c(F)c2)c(C(F)F)n1` [fluxapyroxad], the solubility in water is given as 3.88 µg/mL (≈ 10.2 µM).
